# In ChEMBL document CHEMBL3351528, “Targeting dopamine D3 and serotonin 5-HT1A and 5-HT2A receptors for developing effective antipsychotics: synthesis, biological characterization, and behavioral studies” (J Med Chem, 2014):
# Calls of active or inactive are those of the source. The rule behind the calls is not given here.
# Assays:
# D(2) dopamine receptor = D(2) dopamine receptor (Homo sapiens, UniProt P14416)
# Description: Binding affinity to dopamine D2 receptor (unknown origin)
# [1] = target: 5-hydroxytryptamine receptor 2A (Homo sapiens, UniProt P28223)
# Description: Binding affinity to 5HT2A receptor (unknown origin)
# Mus musculus [2] = test: Effect on spontaneous exploratory locomotor activity in orally dosed NMRI mouse measured for 30 mins with activity counts each 5 mins; assay type: ADME, organism-based; conditions: in vivo, po, 0.5 h
# Mus musculus [3] = test: Antipsychotic-like activity in orally dosed NMRI mouse assessed as reduction in MK801-induced locomotor activity dosed 15 to 30 mins before administration of MK801 measured for 60 mins; assay type: functional; conditions: po, read-out: MED
# D(3) dopamine receptor [4] = target: T1, D(3) dopamine receptor (Homo sapiens, UniProt P35462)
# T1 sequence (P35462 whole entry): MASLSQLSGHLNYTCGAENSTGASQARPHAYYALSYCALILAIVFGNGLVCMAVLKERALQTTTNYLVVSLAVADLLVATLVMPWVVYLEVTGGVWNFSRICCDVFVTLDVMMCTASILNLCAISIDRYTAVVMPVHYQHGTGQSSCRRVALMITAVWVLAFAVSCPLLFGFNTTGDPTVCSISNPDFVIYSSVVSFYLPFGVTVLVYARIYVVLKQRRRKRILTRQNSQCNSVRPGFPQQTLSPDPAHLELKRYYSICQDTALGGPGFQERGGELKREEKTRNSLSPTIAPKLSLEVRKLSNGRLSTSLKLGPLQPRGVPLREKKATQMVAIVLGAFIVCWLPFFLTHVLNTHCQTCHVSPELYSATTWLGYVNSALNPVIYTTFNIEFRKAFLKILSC
# Description: Binding affinity to dopamine D3 receptor (unknown origin)
# [5] = target: T2, 5-hydroxytryptamine receptor 1A (Homo sapiens, UniProt P08908)
# T2 sequence (P08908 whole entry): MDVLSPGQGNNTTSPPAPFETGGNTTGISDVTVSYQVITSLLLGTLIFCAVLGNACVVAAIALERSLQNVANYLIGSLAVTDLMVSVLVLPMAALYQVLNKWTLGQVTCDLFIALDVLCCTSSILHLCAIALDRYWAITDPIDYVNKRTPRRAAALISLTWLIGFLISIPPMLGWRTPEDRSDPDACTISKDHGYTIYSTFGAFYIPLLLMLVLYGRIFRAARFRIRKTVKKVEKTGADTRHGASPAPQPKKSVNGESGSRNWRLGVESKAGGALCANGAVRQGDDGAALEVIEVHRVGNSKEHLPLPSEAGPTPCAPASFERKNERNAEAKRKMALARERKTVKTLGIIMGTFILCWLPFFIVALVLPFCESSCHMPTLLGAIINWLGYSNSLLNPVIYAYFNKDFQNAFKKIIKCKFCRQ
# Description: Binding affinity to 5HT1A receptor (unknown origin)
# [6] = target: T3, 5-hydroxytryptamine receptor 2C (Homo sapiens, UniProt P28335)
# T3 sequence (P28335 whole entry): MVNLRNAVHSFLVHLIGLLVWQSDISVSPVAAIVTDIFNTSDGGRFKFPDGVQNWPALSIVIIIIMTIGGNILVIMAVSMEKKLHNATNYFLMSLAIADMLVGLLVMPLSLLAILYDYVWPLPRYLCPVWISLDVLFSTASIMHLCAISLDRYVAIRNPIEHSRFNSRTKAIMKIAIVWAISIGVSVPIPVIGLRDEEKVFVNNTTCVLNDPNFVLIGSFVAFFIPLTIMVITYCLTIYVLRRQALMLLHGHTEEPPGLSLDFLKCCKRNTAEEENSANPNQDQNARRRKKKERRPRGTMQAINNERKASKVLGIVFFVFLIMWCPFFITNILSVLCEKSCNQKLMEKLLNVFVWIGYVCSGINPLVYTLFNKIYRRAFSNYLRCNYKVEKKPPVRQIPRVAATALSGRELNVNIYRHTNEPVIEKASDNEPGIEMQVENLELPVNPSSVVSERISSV
# Description: Binding affinity to 5HT2C receptor (unknown origin)
# Mus musculus [7] = test: Antipsychotic-like activity in sc dosed NMRI mouse assessed as reduction in MK801-induced locomotor activity dosed 15 to 30 mins before administration of MK801 measured for 60 mins; assay type: functional; conditions: read-out: MED
# Mus musculus [8] = species: Mus musculus; conditions: in vivo, sc, 0.5 h
# Description: Effect on spontaneous exploratory locomotor activity in sc dosed NMRI mouse measured for 30 mins with activity counts each 5 mins
# Mus musculus [9] = species: Mus musculus; test: animal or person; conditions: NMRI, sc, read-out: MED
# Description: Antipsychotic-like activity in sc dosed NMRI mouse assessed as reduction in methamphetamine-induced locomotor activity dosed 15 to 30 mins before administration of methamphetamine measured for 60 mins
# Mus musculus [10] = species: Mus musculus; test: animal or person; conditions: NMRI, sc, read-out: MED; remark: listed apart in the source
# Description: Antipsychotic-like activity in sc dosed NMRI mouse assessed as reduction in PCP-induced locomotor activity dosed 15 to 30 mins before administration of methamphetamine measured for 60 mins
# Rattus norvegicus [11] = test: Reduction in blood pressure in anaesthetized rat at 10 mg/kg, iv; assay type: functional, organism-based; design: dose 10 mg/kg
# Rattus norvegicus [12] = test: Increase in heart rate in anaesthetized rat at 10 mg/kg, iv; assay type: functional, organism-based; design: dose 10 mg/kg
# D(3) dopamine receptor [13] = target: T1, D(3) dopamine receptor; test: Agonist activity at human dopamine D3 receptor expressed in CHO-K1 cells by [35S]GTPgammaS binding assay relative to dopamine; assay type: functional, cell-based
# D(3) dopamine receptor [14] = target: T1, D(3) dopamine receptor; test: Antagonist activity at human dopamine D3 receptor expressed in CHO-K1 cells assessed as reduction in dopamine-induced response by [35S]GTPgammaS binding assay relative to control; assay type: functional, cell-based; conditions: concentration not given here
# [15] = target: T4, 5-hydroxytryptamine receptor 1A (Homo sapiens) (UniProt P08908); test: Agonist activity at human 5HT1A receptor (unknown origin) expressed in CHO cells by [35S]GTPgammaS binding assay relative to 5-HT; assay type: functional, cell-based
# T4 sequence (whole entry): T2 sequence (P08908 whole entry)
# [16] = target: T4, 5-hydroxytryptamine receptor 1A (Homo sapiens); test: Antagonist activity at human 5HT1A receptor (unknown origin) expressed in CHO cells reduction in 5-HT-induced response by [35S]GTPgammaS binding assay; assay type: functional, cell-based; conditions: concentration not given here
# [17] = target: 5-hydroxytryptamine receptor 2A (Rattus norvegicus) (UniProt P14842); test: Antagonist activity at 5HT2A receptor in rat aortic rings assessed as reduction in 5-HT-induced contraction relative to control; conditions: concentration not given here
# Sequence of 5-hydroxytryptamine receptor 2A (Rattus norvegicus) (P14842 whole entry): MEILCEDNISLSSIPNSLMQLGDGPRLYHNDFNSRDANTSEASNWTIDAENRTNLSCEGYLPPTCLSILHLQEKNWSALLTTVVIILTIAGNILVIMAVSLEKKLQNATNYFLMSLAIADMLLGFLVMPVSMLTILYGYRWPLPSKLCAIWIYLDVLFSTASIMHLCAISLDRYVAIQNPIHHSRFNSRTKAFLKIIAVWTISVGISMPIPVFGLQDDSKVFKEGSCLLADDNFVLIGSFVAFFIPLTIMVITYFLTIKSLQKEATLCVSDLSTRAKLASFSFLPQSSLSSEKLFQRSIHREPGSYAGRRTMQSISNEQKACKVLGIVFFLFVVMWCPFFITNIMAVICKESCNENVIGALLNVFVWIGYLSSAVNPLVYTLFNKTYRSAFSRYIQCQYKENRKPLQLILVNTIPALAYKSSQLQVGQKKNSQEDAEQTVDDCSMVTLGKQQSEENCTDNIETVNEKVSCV
# Rattus norvegicus [18] = test: Induction of c-Fos in ip dosed rat nucleus accumbens; assay type: functional, organism-based
# Rattus norvegicus [19] = test: Induction of c-Fos in rat nucleus accumbens shell region at 3 to 30 mg/kg, ip; assay type: functional, organism-based
# Rattus norvegicus [20] = test: Induction of c-Fos in rat nucleus accumbens core region at 10 mg/kg, ip; assay type: functional, organism-based; design: dose 10 mg/kg
# Rattus norvegicus [21] = test: Induction of c-Fos in rat nucleus accumbens core region at 30 mg/kg, ip; assay type: functional, organism-based; design: dose 30 mg/kg
# Rattus norvegicus [22] = test: Induction of c-Fos in rat dorsolateral striatum region at 30 mg/kg, ip; assay type: functional, organism-based; design: dose 30 mg/kg
# Mus musculus [23] = test: Anti-psychotic activity in mouse assessed as amelioration of PCP-induced disruption of prepulse inhibition at 3 mg/kg, po; assay type: functional, organism-based; design: dose 3 mg/kg
# Mus musculus [24] = test: Anti-psychotic activity in mouse assessed as amelioration of PCP-induced disruption of prepulse inhibition at 30 mg/kg, po; assay type: functional, organism-based; design: dose 30 mg/kg
# Mus musculus [25] = test: Increase in prepulse inhibition in mouse at 30 mg/kg, po dosed 30 mins before testing; assay type: functional, organism-based; design: dose 30 mg/kg
# Mus musculus [26] = test: Anxiolytic activity in orally dosed mouse dosed 30 mins before test by marble burying method; assay type: functional, organism-based
# Rattus norvegicus [27] = test: Increase in dopamine release in Wistar rat medial prefrontal cortex at 10 mg/kg, sc measured for 90 mins administered as single dose by microdialysis method; assay type: functional, organism-based; design: dose 10 mg/kg
# Rattus norvegicus [28] = test: Increase in dopamine release in Wistar rat nucleus accumbens at 10 mg/kg, sc measured during 0 to 90 mins administered as single dose by microdialysis method; assay type: functional, organism-based; design: dose 10 mg/kg
# Mus musculus [29] = test: Toxicity in NMRI mouse assessed as induction of sedation at 10 and 30 mg/kg, sc dosed 30 mins before test; assay type: organism-based; design: dose 30 mg/kg, route subcutaneous; conditions: in vivo, 0.5 h
# Mus musculus [30] = test: Toxicity in NMRI mouse assessed as induction of tremors at 30 mg/kg, sc dosed 30 mins before test; assay type: organism-based; design: dose 30 mg/kg, route subcutaneous; conditions: in vivo, 0.5 h
# Mus musculus [31] = test: Toxicity in NMRI mouse assessed as induction of catalepsy at 30 mg/kg, sc dosed 30 mins before test; assay type: organism-based; design: dose 30 mg/kg, route subcutaneous; conditions: in vivo, 0.5 h
# Mus musculus [32] = test: Toxicity in NMRI mouse assessed as induction of tremors at 10 mg/kg, sc dosed 30 mins before test; assay type: organism-based; design: dose 10 mg/kg, route subcutaneous; conditions: in vivo, 0.5 h
# Sequence of D(2) dopamine receptor (P14416 whole entry): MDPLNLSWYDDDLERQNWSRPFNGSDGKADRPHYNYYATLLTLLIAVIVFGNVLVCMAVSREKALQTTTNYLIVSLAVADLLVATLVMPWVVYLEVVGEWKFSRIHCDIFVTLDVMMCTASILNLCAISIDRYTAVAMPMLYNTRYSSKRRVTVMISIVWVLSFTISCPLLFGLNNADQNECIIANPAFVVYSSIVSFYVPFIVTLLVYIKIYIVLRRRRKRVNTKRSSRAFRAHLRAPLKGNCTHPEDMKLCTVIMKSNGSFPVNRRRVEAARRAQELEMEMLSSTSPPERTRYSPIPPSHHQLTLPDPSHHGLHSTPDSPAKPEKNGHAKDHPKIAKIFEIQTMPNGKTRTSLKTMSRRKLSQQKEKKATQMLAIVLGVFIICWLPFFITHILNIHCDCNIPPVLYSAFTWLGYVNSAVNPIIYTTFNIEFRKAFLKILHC
# Sequence of 5-hydroxytryptamine receptor 2A (P28223 whole entry): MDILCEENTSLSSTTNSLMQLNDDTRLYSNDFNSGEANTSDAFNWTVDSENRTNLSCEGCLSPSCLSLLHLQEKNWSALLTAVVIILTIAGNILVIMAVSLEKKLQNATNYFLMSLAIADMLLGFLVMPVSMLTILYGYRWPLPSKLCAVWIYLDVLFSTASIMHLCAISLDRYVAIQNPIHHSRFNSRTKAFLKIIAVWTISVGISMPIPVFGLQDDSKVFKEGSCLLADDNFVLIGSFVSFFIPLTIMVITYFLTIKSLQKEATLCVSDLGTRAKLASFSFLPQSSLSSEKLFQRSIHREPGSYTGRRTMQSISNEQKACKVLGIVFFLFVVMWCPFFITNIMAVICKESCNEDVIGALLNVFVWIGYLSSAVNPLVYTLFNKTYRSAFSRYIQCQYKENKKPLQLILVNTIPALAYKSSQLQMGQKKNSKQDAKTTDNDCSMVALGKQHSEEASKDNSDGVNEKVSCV
SMILES,Ki (D(2) dopamine receptor) [nM],Ki [1] [nM],Ki (D(3) dopamine receptor [4]) [nM],Ki [5] [nM],Ki [6] [nM],minimal effective dose (Mus musculus [7]) [mg/kg],MED (Mus musculus [8]),minimal effective dose (Mus musculus [9]) [mg/kg],minimal effective dose (Mus musculus [10]) [mg/kg],also measured
O=C(NCCCCN1CCN(c2ccc(F)cc2)CC1)c1cc2ccccc2cn1,> 1000,8,16,73,300,–,–,–,–,MED (Mus musculus [2]): 60 mg/kg; minimal effective dose (Mus musculus [3]): 60 mg/kg
O=C(NCCCCN1CCN(c2ccccc2)CC1)c1cc2ccccc2cn1,> 1000,40,12,26,> 1000,3,10 mg/kg,≤ 1,3,–
O=C(NCCCCN1CCN(c2ccccc2)CC1)c1ccc2ncccc2c1,–,–,–,–,–,–,–,–,–,Activity (Rattus norvegicus [11]): Active; Activity (Rattus norvegicus [12]): Active; Activity (D(3) dopamine receptor [13]): 21%; inhibition (D(3) dopamine receptor [14]): 69%; Activity [15]: 66%; inhibition [16]: 19%; inhibition [17]: 94%; Activity (Rattus norvegicus [18]): Dose-dependent effect; Activity (Rattus norvegicus [19]): Active; Activity (Rattus norvegicus [20]): inactive; Activity (Rattus norvegicus [21]): Active; Activity (Rattus norvegicus [22]): Active; Activity (Mus musculus [23]): Active; Activity (Mus musculus [24]): inactive; Activity (Mus musculus [25]): Active; Activity (Mus musculus [26]): Dose-dependent effect; Activity (Rattus norvegicus [27]): Active; Activity (Rattus norvegicus [28]): inactive
COc1cccc(N2CCN(CCCCNC(=O)c3cc4ccccc4cn3)CC2)c1,> 1000,33,9.4,7.9,190,10,10 mg/kg,≤ 1,10,Activity (Mus musculus [29]): Toxic
Cc1cccc(N2CCN(CCCCNC(=O)c3cc4ccccc4o3)CC2)c1C,85,3.6,0.4,4,17,30,–,–,–,Activity (Mus musculus [30]): Toxic
Cc1cccc(N2CCN(CCCCNC(=O)c3ccc4ccccc4n3)CC2)c1,> 1000,17,53,18,74,10,10 mg/kg,≤ 1,> 10,Activity (Mus musculus [30]): Toxic
Cc1cccc(N2CCN(CCCCNC(=O)c3ccccc3)CC2)n1,> 1000,83,73,3,> 1000,–,> 3 mg/kg,1,> 3,–
Cc1cccc(N2CCN(CCCCNC(=O)c3cc4ccccc4cn3)CC2)c1,286,15,5,8,169,3,<= 3 mg kg-1,≤ 3,–,Activity (Mus musculus [31]): Non-toxic
COc1cccc(N2CCN(CCCCNC(=O)c3ccccc3)CC2)n1,> 1000,110,55,6,> 1000,3,10 mg/kg,0.3,10,–
COc1cccc(N2CCN(CCCCNC(=O)c3ccccn3)CC2)n1,> 1000,140,200,8,43,–,> 3 mg/kg,3,3,–
O=C(NCCCCN1CCN(c2ccccc2)CC1)c1cc2ccccc2o1,> 1000,392,4,30,> 1000,3,<= 0.3 mg kg-1,≤ 1,≤ 0.3,Activity (Mus musculus [32]): Toxic
